Source: PubChem BioAssay AID328 (DTP/NCI, 2004)
Values joined by “and” are separate entries in the source; they are usually repeats but may differ in a detail not shown here. Identical values can stand only once. Inconclusive results and toxic doses are left out. How the source made its calls: active means survival T/C of 150% or more; inactive means T/C below 125% in these data.

Tested on: BDF1 mice, P388 leukemia ip, median survival T/C
Assay: NCI In Vivo Anticancer Drug Screen. Data for tumor model P388 Leukemia (intraperitoneal) in B6D2F1 (BDF1) mice
Conditions: endpoint: median survival time, higher = longer survival
In short: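 Steps: implant the tumour, treat one group with compound and another with vehicle, record survival, then divide treated by control.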

[1] = dose: 25.0 mg/kg/injection, schedule: Q01DX009 (ip), vehicle: saline
[2] = dose: 50.0 mg/kg/injection, schedule: Q01DX009 (ip), vehicle: saline
[3] = dose: 50.0 mg/kg/injection, schedule: Q04DX003 (ip), vehicle: saline with Tween-80
[4] = dose: 100.0 mg/kg/injection, schedule: Q01DX009 (ip), vehicle: saline
[5] = dose: 100.0 mg/kg/injection, schedule: Q04DX003 (ip), vehicle: saline with Tween-80
[6] = dose: 50.0 mg/kg/injection, schedule: Q01DX009 (ip), vehicle: saline with Tween-80
[7] = dose: 100.0 mg/kg/injection, schedule: Q01DX009 (ip), vehicle: saline with Tween-80
[8] = dose: 200.0 mg/kg/injection, schedule: Q01DX009 (ip), vehicle: saline with Tween-80
[9] = dose: 200.0 mg/kg/injection, schedule: Q04DX003 (ip), vehicle: saline with Tween-80
[10] = dose: 400.0 mg/kg/injection, schedule: Q04DX003 (ip), vehicle: saline with Tween-80
[11] = dose: 200.0 mg/kg/injection, schedule: Q01DX009 (ip), vehicle: saline
[12] = dose: 400.0 mg/kg/injection, schedule: Q01DX009 (ip), vehicle: saline
[13] = dose: 100.0 mg/kg/injection, schedule: Q04DX003 (ip), vehicle: saline
[14] = dose: 200.0 mg/kg/injection, schedule: Q04DX003 (ip), vehicle: saline

Measured: T/C

COc1ccc(-c2c3c(cc4cc5c(cc24)OCO5)C(=O)OC3)cc1OC
inactive: dose: 0.25 mg/kg/injection, schedule: Q01DX009 (ip), vehicle: saline + alcohol 95 % of control | dose: 0.5 mg/kg/injection, schedule: Q01DX009 (ip), vehicle: saline + alcohol 88 % of control | dose: 1.0 mg/kg/injection, schedule: Q01DX009 (ip), vehicle: saline + alcohol 95 % of control | dose: 1.5 mg/kg/injection, schedule: Q01DX009 (ip), vehicle: saline + alcohol 104 % of control | dose: 2.0 mg/kg/injection, schedule: Q01DX009 (ip), vehicle: saline + alcohol 88 % of control | dose: 3.0 mg/kg/injection, schedule: Q01DX009 (ip), vehicle: saline + alcohol 93 % of control | dose: 4.0 mg/kg/injection, schedule: Q01DX009 (ip), vehicle: saline + alcohol 95 % of control | dose: 6.0 mg/kg/injection, schedule: Q01DX009 (ip), vehicle: saline + alcohol 111 % of control | dose: 8.0 mg/kg/injection, schedule: Q01DX009 (ip), vehicle: saline + alcohol 104 % of control | dose: 12.0 mg/kg/injection, schedule: Q01DX009 (ip), vehicle: saline + alcohol 101 % of control | dose: 24.0 mg/kg/injection, schedule: Q01DX009 (ip), vehicle: saline + alcohol 93 % of control | dose: 25.0 mg/kg/injection, schedule: Q01DX009 (ip), vehicle: saline + alcohol 94 % of control | dose: 50.0 mg/kg/injection, schedule: Q01DX009 (ip), vehicle: saline + alcohol 94 % of control | dose: 100.0 mg/kg/injection, schedule: Q01DX009 (ip), vehicle: saline + alcohol 97 % of control | dose: 200.0 mg/kg/injection, schedule: Q01DX009 (ip), vehicle: saline + alcohol 86 % of control

CCOC(=O)C[n+]1ccccc1
inactive: [1] 100 % of control | [2] 118 % of control | [3] 90 % of control | dose: 75.0 mg/kg/injection, schedule: Q04DX003 (ip), vehicle: saline 104 % of control | [4] 90 % of control | [5] 90 % of control | dose: 150.0 mg/kg/injection, schedule: Q04DX003 (ip), vehicle: saline 109 % of control

CC(=O)n1ncc2ccc([N+](=O)[O-])cc21
inactive: dose: 6.25 mg/kg/injection, schedule: Q01DX009 (ip), vehicle: water 103 % of control | dose: 12.5 mg/kg/injection, schedule: Q01DX009 (ip), vehicle: water 97 % of control and 111 % of control | dose: 25.0 mg/kg/injection, schedule: Q01DX009 (ip), vehicle: water 94 % of control (2×) and 108 % of control | dose: 50.0 mg/kg/injection, schedule: Q01DX009 (ip), vehicle: water 94 % of control and 99 % of control | dose: 100.0 mg/kg/injection, schedule: Q01DX009 (ip), vehicle: water 94 % of control and 97 % of control and 105 % of control | dose: 100.0 mg/kg/injection, schedule: Q04DX003 (ip), vehicle: water 111 % of control | dose: 200.0 mg/kg/injection, schedule: Q01DX009 (ip), vehicle: water 100 % of control | dose: 200.0 mg/kg/injection, schedule: Q04DX003 (ip), vehicle: water 106 % of control | dose: 400.0 mg/kg/injection, schedule: Q01DX009 (ip), vehicle: water 96 % of control | dose: 400.0 mg/kg/injection, schedule: Q04DX003 (ip), vehicle: water 98 % of control

COC1=C2CCCCC2=[N+]2CCc3ccccc3C2C1 (stereo not given)
inactive: dose: 25.0 mg/kg/injection, schedule: Q01DX001 (ip), vehicle: saline sonified 100 % of control | dose: 50.0 mg/kg/injection, schedule: Q01DX001 (ip), vehicle: saline sonified 95 % of control | dose: 100.0 mg/kg/injection, schedule: Q01DX001 (ip), vehicle: saline sonified 95 % of control

COc1cc2c(cc1OC)C(c1ccc(N=Cc3ccc(N(C)C)cc3)cc1)N(C(=S)Nc1cc(Cl)ccc1Cl)CC2 (stereo not given)
inactive: dose: 25.0 mg/kg/injection, schedule: Q01DX009 (ip), vehicle: saline with Tween-80 97 % of control | [6] 93 % of control and 97 % of control | [7] 95 % of control | [8] 89 % of control

CC(c1ccccc1)(c1ccccc1)c1ccccc1
inactive: [6] 101 % of control | [7] 101 % of control | [8] 97 % of control

[O-][n+]1onc2ccc(Cl)cc21
inactive: dose: 12.5 mg/kg/injection, schedule: Q01DX009 (ip), vehicle: Klucel (hydroxypropylcellulose) (HPC) 100 % of control | dose: 25.0 mg/kg/injection, schedule: Q01DX009 (ip), vehicle: Klucel (hydroxypropylcellulose) (HPC) 100 % of control | dose: 37.5 mg/kg/injection, schedule: Q04DX003 (ip), vehicle: Klucel (hydroxypropylcellulose) (HPC) 95 % of control | dose: 50.0 mg/kg/injection, schedule: Q01DX009 (ip), vehicle: Klucel (hydroxypropylcellulose) (HPC) 95 % of control | dose: 75.0 mg/kg/injection, schedule: Q04DX003 (ip), vehicle: Klucel (hydroxypropylcellulose) (HPC) 117 % of control | dose: 150.0 mg/kg/injection, schedule: Q04DX003 (ip), vehicle: Klucel (hydroxypropylcellulose) (HPC) 86 % of control

CCOC(=O)CCN(CCC(=O)OCC)C(C)C
inactive: [5] 100 % of control | [9] 100 % of control | [10] 100 % of control

CC(C)C1(C(=O)NN)OC2(O)CCCCCN2C1=O (stereo not given)
inactive: [4] 90 % of control | [11] 90 % of control | [12] 100 % of control

CN(C)CCCNc1ccc(O)c2c1C(=O)c1ccccc1C2=O
inactive: dose: 6.25 mg/kg/injection, schedule: Q01DX009 (ip), vehicle: saline 91 % of control | dose: 12.5 mg/kg/injection, schedule: Q01DX009 (ip), vehicle: saline 110 % of control and 114 % of control | [1] 103 % of control and 109 % of control and 112 % of control | [13] 96 % of control | [14] 112 % of control

CCOC(=O)C1CC1C(=O)O (stereo not given)
inactive: [13] 103 % of control | [14] 114 % of control

N#C/C(=C\C=C\c1ccccc1)C(N)=O
inactive: [6] 110 % of control | [7] 120 % of control | [8] 120 % of control

C#CC(C)OCC1CNC(=S)O1 (stereo not given)
inactive: [3] 110 % of control | [5] 100 % of control | [9] 115 % of control | [10] 110 % of control

O=C(O)CCCOc1ccc(Cl)cc1Cl
inactive: [4] 100 % of control | [11] 104 % of control | [12] 95 % of control

COc1cccc(CCCC(=O)CS(C)=O)c1 (stereo not given)
inactive: [2] 98 % of control | [4] 102 % of control | [11] 109 % of control

C=CCCCCCCCCC(=O)Cl
inactive: [5] 108 % of control | [9] 104 % of control | [10] 100 % of control

Cc1c(N2CCCCC2)[nH]c2ccccc12
inactive: dose: 50.0 mg/kg/injection, schedule: Q04DX003 (ip), vehicle: Klucel (hydroxypropylcellulose) (HPC) 100 % of control | dose: 100.0 mg/kg/injection, schedule: Q04DX003 (ip), vehicle: Klucel (hydroxypropylcellulose) (HPC) 100 % of control | dose: 200.0 mg/kg/injection, schedule: Q04DX003 (ip), vehicle: Klucel (hydroxypropylcellulose) (HPC) 95 % of control

OC(Nc1nccs1)C(Cl)(Cl)Cl (stereo not given)
inactive: [6] 104 % of control | [7] 110 % of control | [8] 94 % of control

O=C(NC1CCOC1=O)OCc1ccccc1 (stereo not given)
inactive: [6] 100 % of control | [7] 100 % of control | [8] 100 % of control | dose: 400.0 mg/kg/injection, schedule: Q01DX009 (ip), vehicle: saline with Tween-80 98 % of control

CC1CC=CCC1COC(=O)C(=O)OCC1CC=CCC1C (stereo not given)
inactive: [5] 105 % of control | [9] 105 % of control | [10] 110 % of control
